Results taken from patent US20040259772A1, “Use of a histone deacetylase inhibitor to increase the entry of an adenoviral agent into a cell” (priority 2001, published 2004).

How the values were obtained:
[1] = test system: A498, MCF7 and HepG2 cancerous cell lines; assay: β-galactosidase expression upon AdCMVβgal infection, cancerous cell lines (Example 4); type: cell-based, human
Experimental: (§1) 10^4 untreated cells or 10^4 cells pre-treated with 1 ng/ml depsipeptide for 72 hrs were plated on a round cover glass (DAIGGER, Vernon Hills, Ill.) in 24 well plates. Cells were transduced with 100 MOI of Ad-βgal in medium without serum for 1 hr and maintained with serum-containing medium for 48 hrs after transduction. Adenovirus transgene expression was compared using the β-Gal Staining Kit (Invitrogen, Carlsbad, Calif.) and β-gal positive cells were counted from three non-overlapping fields.
A498, MCF7 and HepG2 cancerous cell lines and normal cells (Clonetics, Walkersville, Md.) were treated with FR901228. […] Induction of CAR was only observed in normal cells at 10-20 ng/ml FR901228 and then only a two-fold increase in CAR was observed.

[2] = test system: coxsackie-adenovirus receptor (CAR); assay: RT-PCR analysis of CAR RNA levels in cultured cells; type: cell-based, human; details: for level of CAR (RT-PCR), compared with K562: less than 3 ng/ml; for level of CAR (RT-PCR): HUVEC
Experimental: RT-PCR for CAR and integrin αv was performed using total RNA extracted with the RNeasy Mini Kit (Qiagen, Valencia, Calif.). Single-stranded oligo(dt)-primed cDNA was generated from 1 μg of RNA in a 20 μl reaction using MMLV reverse transcriptase (Life Technologies, Eggenstein, Germany). Oligonucleotide primers used for analysis of human CAR (Bergelson et al., supra) and αv integrin (Suzuki et al., Proc. Natl. Acad. Sci. U.S.A. 83:8614-8618 (1986)) RNA expression were:
(§2) These primers generated products that were 631 bp (CAR) and 490 bp (αv integrin) in length. The amplification reaction was carried out with 1 μg of the cDNA product for 30 cycles, and each cycle consisted of 94° C for 20 sec, 64° C. for 30 sec and 72° C. for 1 min, followed by a final 10 min elongation at 72° C. Comparability of RNA quantities was assured using β-actin as an internal standard. Oligonulceotide primers for human β-actin RNA amplification were: […]

histone H3 = assay: Western blot analysis of total histone H3; type: cell-based, human
Experimental: (§3) Supernatants were collected as nuclear extracts. Ten lag of protein were separated on an 11% SDS-PAGE gel, and electroblotting to Immobilon™-P transfer membrane (Millipore, Bedford, Mass.) was performed. The membrane was incubated for 30 min with either a rabbit polyclonal antibody against acetylated histone H3 (Upstate Biotechnology, Lake Placid, N.Y.) or a rabbit polyclonal antibody against histone H3 (Upstate Biotechnology, Lake Placid, N.Y.) diluted 1:2000 in 5% milk. After washing, anti-rabbit Ig horseradish peroxidase-linked secondary antibody (Amersham Pharmacia Biotech, Piscataway, N.J.) was added and incubated for 30 min. After washing, the membrane was developed in ECL™ Western blotting detection reagents (Amersham Pharmacia Biotech, Piscataway, N.J.).

[3] = test system: CD34+ selected peripheral blood stem cells (PBSCs); assay: Adenoviral β-galactosidase transgene expression in CD34+ PBSCs; type: cell-based; details: pre-treated 0.1 ng/ml for 24 hr, moi=10, incubation less than 1 hr
Source text: (§4) […] […] Adenovirus transgene expression was compared using the β-Gal Staining Kit (Invitrogen, Carlsbad, Calif.) and β-gal positive cells were counted from three non-overlapping fields.

acetylated histone H3 [4] = assay: Western blot analysis of acetylated histone H3; type: cell-based, human
Experimental: as §3, with “Ten lag of protein were separated on an 11% SDS-PAGE gel, and electroblotting to Immobilon™-P transfer membrane (Millipore, Bedford, Mass.) was performed.” left out

[5] = test system: human umbilical vein endothelial cells (HUVEC); assay: Adenoviral β-galactosidase transgene expression in HUVEC; type: cell-based; details: HUVEC treated with 0.3 ng/ml for 48 hr prior to adenoviral infection
Source text: as §1, with “10^4 untreated cells or 10^4 cells pre-treated with 1 ng/ml depsipeptide for 72 hrs were plated on a round cover glass (DAIGGER, Vernon Hills, Ill.) in 24 well plates.” left out

[6] = test system: human cancer cell lines FTC 236, SW-1736, SW620, A498, MCF7, HepG2; assay: Transduction efficiency by Ad-βgal (β-gal positive cells), six cancer cell lines; type: cell-based; details: 72 hrs with 1 ng/ml depsipeptide
Experimental: A total of 6 human cancer cell lines were tested: a follicular thyroid carcinoma (FTC 236) (Demeure et al., World J. Surg. 16:770-776 (1992)); an anaplastic thyroid carcinoma (SW-1736) (Ain et al., J. Clin. Endocrinol. Metab. 81:3650-3653 (1996)); a colon carcinoma (SW620) (Leibovitz et al., Cancer Res. 36:4562-4569 (1976)); a renal cell carcinoma (A498) (Giard et al., J. Natl. Cancer Inst. 51:1417-1423 (1973)); a breast carcinoma (MCF7) (Soule et al., J. Natl. Cancer Inst. 51:1409-1413 (1973)); and a hepatocarcinoma (HepG2) (Knowles et al., Science 209:497-499 (1980)).
The Ad5.CMV-LacZ is an E1 and E3 gene deleted replication defective type 5 adenovirus obtained from Qbiogene (Carlsbad, Calif.). It was grown in 293A cells according to protocols supplied by the company. The AdCMVβgal virus was purified and the titer was determined by the TCID50 assay as described by the manufacturer.
as §1

CAR = CAR expression in PBMNCs of a Phase I depsipeptide patient; type: in vivo, human
Source text: (§5) In addition to the above, PBMNCs were obtained from a patient enrolled in a Phase I depsipeptide (FR901228) study (concentrations used with cultured cells are within the range administered to patients) and examined.

αv integrin = assay: RT-PCR analysis of αv integrin RNA levels in cultured cells; type: cell-based, human
Experimental: RT-PCR for CAR and integrin αv was performed using total RNA extracted with the RNeasy Mini Kit (Qiagen, Valencia, Calif.). Single-stranded oligo(dt)-primed cDNA was generated from 1 μg of RNA in a 20 μl reaction using MMLV reverse transcriptase (Life Technologies, Eggenstein, Germany).
as §2, with “The” for “These primers generated products that were 631 bp (CAR) and 490 bp (αv integrin) in length. The”

K562 cells = assay: Adenoviral β-galactosidase transgene expression in K562; type: cell-based, human; details: pre-treated 1 ng/ml for 24 hr, moi=50, incubation less than 1 hr
Source text: as §4

acetylated histone H3 [7] = assay: Acetylated histone H3 in PBMNCs of a Phase I depsipeptide patient; type: in vivo, human; details: after administration of depsipeptide
Source text: as §5

[8] = test system: G-CSF-mobilized peripheral blood mononuclear cells (PBMNCs); assay: Adenoviral β-galactosidase transgene expression in PBMNCs; type: cell-based; details: pre-treated 0.1 ng/ml for 24 hr, moi=10, incubation less than 1 hr
Source text: as §4

[9] = 1 ng/ml depsipeptide for 72 hrs, all six human cancer cell lines
[10] = A498, MCF7, HepG2 cancerous cells, 1 ng/ml

Structure (SMILES): C/C=C1\NC(=O)[C@H]2CSSCC/C=C/[C@H](CC(=O)N[C@H](C(C)C)C(=O)N2)OC(=O)[C@H](C(C)C)NC1=O [FR901228]
- cancerous cells expressing β-galactosidase ([1]; A498, MCF7, HepG2 following FR901228 treatment): 75-85%
- increase in β-galactosidase expression upon infection ([1]; all cancerous cell lines (A498, MCF7, HepG2) following FR901228 treatment): 4-10 fold
- expression of endogenous CAR [2, 9]: increased expression
- CAR expression [2, 10]: increased CAR expression in cancerous cells to levels higher than those found in normal cells
- level of CAR (RT-PCR), compared with K562 ([2]; CD34+ selected PBSCs): Comparable levels of CAR
- level of CAR (RT-PCR), compared with K562 ([2]; G-CSF-mobilized PBMNCs): Comparable levels of CAR
- level of CAR (RT-PCR) ([2]; 0.3 ng/ml for 48 hr): increased the level of CAR significantly
- increase in level of CAR (RT-PCR) ([2]; K562 cells, 1 ng/ml): about 3 fold
- concentration at which induction of CAR was observed ([2]; normal cells (Clonetics)): 10 to 20 ng/mL
- increase in CAR ([2]; normal cells, 10-20 ng/ml): two-fold
- level of histone H3 (histone H3; HUVEC): not altering the level of histone H3
- total histone H3 levels (histone H3; K562 cells and CD34+ PBSCs): No significant change
- cells expressing β-galactosidase [3]: more than 80%
- histone acetylation (acetylated histone H3 [4]; 1 ng/ml depsipeptide, cancer cell lines of Example 1): marked increase
- level of acetylated histone H3 (acetylated histone H3 [4]; CD34+ PBSCs): increased the level of acetylated histone H3 substantially
- level of acetylated histone H3 (acetylated histone H3 [4]; HUVEC): increased the level of acetylated histone H3 substantially
- level of acetylated histone H3 (acetylated histone H3 [4]; K562 cells): increased the level of acetylated histone H3 substantially
- histone acetylation (acetylated histone H3 [4]; cancerous cells, 1 ng/ml): increased histone acetylation
- concentration required to increase histone acetylation (acetylated histone H3 [4]; normal cells, compared with cancerous cells): higher concentration
- cells expressing the β-galactosidase transgene [5]: over 80%
- cells expressing β-galactosidase ([6]; then adenovirus with CMV-β-galactosidase, six cancer cell lines): 72-88%
- frequency of expression of the β-galactosidase transgene ([6]; all cell lines): marked increases
- CAR expression in patient PBMNCs (CAR; after completion of a 4 hr depsipeptide infusion): increase
- CAR expression in patient PBMNCs (CAR; at 24 hr of depsipeptide infusion): further increase
- expression of endogenous αv integrin (αv integrin; [9]): increased expression
- levels of αv integrins (αv integrin; [10]): increased from undetectable to a level similar to that found in untreated normal cells
- levels of αv integrins (printed 'o integrins') (αv integrin; normal cells treated in the same manner): little increase
- cells expressing β-galactosidase (K562 cells): more than 80%
- level of acetylated histone H3 in patient PBMNCs (acetylated histone H3 [7]): increased
- cells expressing β-galactosidase [8]: more than 80%

Structure (SMILES): CCCC(=O)[O-].[Na+] [sodium butyrate]
- level of CAR (RT-PCR) ([2]; concentration not given): little effect

Structure (SMILES): CC(/C=C/C(=O)NO)=C\[C@@H](C)C(=O)c1ccc(N(C)C)cc1 [trichostatin A]
- level of CAR (RT-PCR) ([2]; concentration not given): increased the level of CAR slightly
